“And” between values parts separate entries of the source, which are not always exact repeats. Equal entries are not always repeated.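 The compound was tested at five concentrations on cells cultured in 96-well plates, with a 48-hour exposure period. At the GI50, growth is halved. TGI: total growth inhibition.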
Assays:
Test in all cases: NCI tumour cell line growth inhibition, 48 h
[1] = tested on: HS 578T breast
[2] = tested on: SW-620 colon
[3] = tested on: NCI-H522 lung
[4] = tested on: A549 NSCLC
[5] = tested on: IGROV1 ovarian
[6] = tested on: HL-60(TB) leukemia
[7] = tested on: TK-10 renal
[8] = tested on: HCT-116 colon
[9] = tested on: T-47D breast
[10] = tested on: EKVX NSCLC

Cc1ccc(C=C2C(Cl)=C(Cl)C(Cl)=C2Cl)cc1
GI50 [1]: 0.636 µM
TGI [1]: 7.56 µM
GI50 [2]: 0.339 µM
TGI [2]: 1.18 µM
GI50 [3]: 0.322 µM
TGI [3]: 1.01 µM
GI50 [4]: 1.7 µM
TGI [4]: 3.84 µM
GI50 [5]: 0.553 µM
TGI [5]: 1.64 µM
GI50 [6]: 0.363 µM
TGI [6]: 1.53 µM
GI50 [7]: 0.972 µM
TGI [7]: 2.55 µM
GI50 [8]: 0.358 µM
TGI [8]: 1.04 µM
GI50 [9]: 1.02 µM
TGI [9]: 2.79 µM
GI50 [10]: 1.4 µM
TGI [10]: 4.28 µM

NC(=S)N/N=C1\c2ccccc2-c2c(F)c(F)c(F)c(F)c21
GI50 [1]: 6.25 µM
TGI [1]: 39.5 µM
GI50 [2]: 1.79 µM
TGI [2]: 3.66 µM
GI50 [3]: 0.321 µM
TGI [3]: 1.21 µM
GI50 [4]: 16.7 µM
TGI [4]: > 58.4 µM
GI50 [5]: 5.81 µM
TGI [5]: 13.8 µM
GI50 [6]: 3.58 µM
TGI [6]: 16 µM
GI50 [7]: 5.7 µM
TGI [7]: 15.9 µM
GI50 [8]: 1.67 µM
TGI [8]: 3.15 µM
GI50 [9]: 1.91 µM
TGI [9]: 5.08 µM
GI50 [10]: 25.4 µM
TGI [10]: > 100 µM

N#Cc1c(NC(=O)c2ccc(F)cc2)sc2c1CCCC2
GI50 [1]: > 25 µM
TGI [1]: > 25 µM
GI50 [2]: > 25 µM
TGI [2]: > 25 µM
GI50 [3]: > 25 µM
TGI [3]: > 25 µM
GI50 [4]: > 25 µM
TGI [4]: > 25 µM
GI50 [5]: > 25 µM
TGI [5]: > 25 µM
GI50 [6]: > 25 µM
TGI [6]: > 25 µM
GI50 [7]: > 25 µM
TGI [7]: > 25 µM
GI50 [8]: > 25 µM
TGI [8]: > 25 µM
GI50 [9]: > 25 µM
TGI [9]: > 25 µM
GI50 [10]: > 25 µM
TGI [10]: > 25 µM

O=C(c1ccc(C(F)(F)F)c(Cl)c1)N(Cc1ccc(Cl)cc1)c1ccc(-c2cc(C(F)(F)F)[nH]n2)c(O)c1
GI50 [1]: 1.05 µM
TGI [1]: 3.03 µM
GI50 [2]: 0.958 µM
TGI [2]: 2.4 µM
GI50 [3]: 0.893 µM
TGI [3]: 3.31 µM
GI50 [4]: 1.35 µM
TGI [4]: 5.11 µM
GI50 [5]: 0.887 µM
TGI [5]: 2.13 µM
GI50 [6]: 1.12 µM
TGI [6]: 2.69 µM
GI50 [7]: 1.41 µM
TGI [7]: 3.99 µM
GI50 [8]: 0.705 µM
TGI [8]: 1.58 µM
GI50 [9]: 0.948 µM
TGI [9]: 3.43 µM
GI50 [10]: 1.3 µM
TGI [10]: 4.57 µM

Cn1c(=O)nc2n(-c3ccc(Cl)cc3)c3cc(Cl)ccc3nc-2c1=O
TGI [1]: 5.59 µM
TGI [2]: 4.22 µM
TGI [3]: 6.36 µM
TGI [4]: 33 µM
TGI [5]: 3.74 µM
TGI [6]: 5.66 µM
TGI [7]: 37 µM
TGI [8]: 10 µM
TGI [9]: 2.03 µM
TGI [10]: 17.7 µM

COc1ccc(NC2=C(I)C(=O)c3ncccc3C2=O)cc1
GI50 [1]: 0.834 µM
TGI [1]: 5.04 µM
GI50 [2]: 1.13 µM
TGI [2]: 3.06 µM
GI50 [3]: 0.827 µM
TGI [3]: 2.53 µM
GI50 [4]: 1.84 µM
TGI [4]: 3.91 µM
GI50 [5]: 0.417 µM
TGI [5]: 1.93 µM
GI50 [6]: 1.94 µM
TGI [6]: 4.34 µM
GI50 [7]: 2.14 µM
TGI [7]: 3.96 µM
GI50 [8]: 0.494 µM
TGI [8]: 2.51 µM
GI50 [9]: 1.59 µM
TGI [9]: 4.17 µM
GI50 [10]: 1.73 µM
TGI [10]: 3.68 µM

COc1cc(N2C(=O)[C@H](c3ccccc3)C2c2ccc(SC)cc2)cc(OC)c1OC (some centres undefined)
GI50 [1]: 0.0653 µM
TGI [1]: > 100 µM
GI50 [2]: 0.0382 µM
TGI [2]: > 100 µM
GI50 [3]: 0.0232 µM
TGI [3]: 0.0734 µM
GI50 [4]: 0.0374 µM
TGI [4]: > 100 µM
GI50 [5]: 0.0432 µM
TGI [5]: > 100 µM
GI50 [6]: 0.023 µM
TGI [6]: 0.0666 µM
GI50 [7]: 0.638 µM
TGI [7]: > 100 µM
GI50 [8]: 0.0317 µM
TGI [8]: 1.17 µM
GI50 [9]: > 100 µM
TGI [9]: > 100 µM
GI50 [10]: 0.0513 µM
TGI [10]: > 100 µM

Cn1c2c(c3ccccc31)CCN(CCCCN1CCN(c3ccccc3)CC1)C2=O
TGI [1]: 50.6 µM
TGI [2]: > 56.2 µM
TGI [3]: > 100 µM
TGI [4]: > 100 µM
TGI [5]: > 100 µM
TGI [6]: > 81.3 µM
TGI [7]: > 90.4 µM
TGI [8]: > 100 µM
TGI [9]: > 100 µM
TGI [10]: > 71.9 µM

C=CC(=O)N1C[C@@H]2CCOc3c(Cl)c(-c4c(O)cccc4F)c(F)c4ncnc(c34)N2C[C@H]1C
GI50 [1]: 16.5 µM
TGI [1]: 89.2 µM
GI50 [2]: 13.9 µM
TGI [2]: 33.1 µM
GI50 [3]: 14.2 µM
TGI [3]: 30.9 µM
GI50 [4]: 15.3 µM
TGI [4]: 34.7 µM
GI50 [5]: 17.4 µM
TGI [5]: 46.6 µM
GI50 [6]: 4.81 µM
TGI [6]: 33.1 µM
GI50 [7]: 16.1 µM
TGI [7]: 33.3 µM
GI50 [8]: 11.2 µM
TGI [8]: 24.5 µM
GI50 [9]: 14.9 µM
TGI [9]: 87.4 µM
GI50 [10]: 14.4 µM
TGI [10]: 27.8 µM

Clc1cc(Cl)c(OCCCCCCN2CCNCC2)c(Cl)c1
GI50 [1]: 3.35 µM
TGI [1]: 15.2 µM
GI50 [2]: 1.91 µM
TGI [2]: 3.75 µM
GI50 [3]: 11.1 µM
TGI [3]: 25.4 µM
GI50 [4]: 10.6 µM
TGI [4]: 25.3 µM
GI50 [5]: 3.07 µM
TGI [5]: 8.43 µM
GI50 [6]: 1.86 µM
TGI [6]: 3.82 µM
GI50 [7]: 11.8 µM
TGI [7]: 24.5 µM
GI50 [8]: 1.67 µM
TGI [8]: 3.19 µM
GI50 [9]: 2.01 µM
TGI [9]: 5.06 µM
GI50 [10]: 9.45 µM
TGI [10]: 22.3 µM

COCCOC1=CC(=O)c2c(O)ccc(O)c2C1=O
TGI [1]: 6.88 µM
GI50 [2]: 1.32 µM
TGI [2]: 6.55 µM and 3.18 µM
GI50 [3]: 1.69 µM
TGI [3]: 4.44 µM and 3.37 µM
GI50 [4]: 1.74 µM
TGI [4]: 4.15 µM and 3.78 µM
TGI [5]: 3.11 µM and 2.97 µM
GI50 [6]: 0.305 µM
TGI [6]: 2.26 µM and 1.04 µM
GI50 [7]: 2.9 µM
TGI [7]: 3.57 µM and 5.78 µM
GI50 [8]: 1.29 µM
TGI [8]: 1 µM and 2.64 µM
TGI [9]: 4.83 µM
TGI [10]: 3.88 µM and 3.93 µM

O=c1cnnc(N/N=C/c2ccccc2O)[nH]1
GI50 [1]: 28.2 µM
TGI [1]: > 100 µM
GI50 [2]: 0.442 µM
TGI [2]: > 100 µM
GI50 [3]: 1.26 µM
TGI [3]: > 30.5 µM
GI50 [4]: 1.55 µM
TGI [4]: > 100 µM
GI50 [5]: 3.2 µM
TGI [5]: 16.7 µM
GI50 [6]: 2.91 µM
TGI [6]: 21.8 µM
GI50 [7]: 8.26 µM
TGI [7]: > 100 µM
GI50 [8]: 0.0337 µM
TGI [8]: > 100 µM
GI50 [9]: 0.0656 µM
TGI [9]: > 100 µM

O=C(O)c1cc(=O)cc(C(=O)O)o1
GI50 [1]: > 100 µM
TGI [1]: > 100 µM
GI50 [2]: > 100 µM
TGI [2]: > 100 µM
GI50 [3]: > 100 µM
TGI [3]: > 100 µM
GI50 [4]: > 100 µM
TGI [4]: > 100 µM
GI50 [5]: > 100 µM
TGI [5]: > 100 µM
GI50 [6]: > 100 µM
TGI [6]: > 100 µM
GI50 [7]: > 100 µM
TGI [7]: > 100 µM
GI50 [8]: > 100 µM
TGI [8]: > 100 µM
GI50 [9]: > 100 µM
TGI [9]: > 100 µM
GI50 [10]: > 100 µM
TGI [10]: > 100 µM
